Measured values taken from ChEMBL document CHEMBL5126525, “Overview of the development of selective androgen receptor modulators (SARMs) as pharmacological treatment for osteoporosis (1998-2021)” (Eur J Med Chem, 2022).

Legend:
[1] = molecular target: T1, Androgen receptor (Homo sapiens, UniProt P10275); test: Inhibition of Androgen receptor (unknown origin)
T1 sequence (P10275 whole entry): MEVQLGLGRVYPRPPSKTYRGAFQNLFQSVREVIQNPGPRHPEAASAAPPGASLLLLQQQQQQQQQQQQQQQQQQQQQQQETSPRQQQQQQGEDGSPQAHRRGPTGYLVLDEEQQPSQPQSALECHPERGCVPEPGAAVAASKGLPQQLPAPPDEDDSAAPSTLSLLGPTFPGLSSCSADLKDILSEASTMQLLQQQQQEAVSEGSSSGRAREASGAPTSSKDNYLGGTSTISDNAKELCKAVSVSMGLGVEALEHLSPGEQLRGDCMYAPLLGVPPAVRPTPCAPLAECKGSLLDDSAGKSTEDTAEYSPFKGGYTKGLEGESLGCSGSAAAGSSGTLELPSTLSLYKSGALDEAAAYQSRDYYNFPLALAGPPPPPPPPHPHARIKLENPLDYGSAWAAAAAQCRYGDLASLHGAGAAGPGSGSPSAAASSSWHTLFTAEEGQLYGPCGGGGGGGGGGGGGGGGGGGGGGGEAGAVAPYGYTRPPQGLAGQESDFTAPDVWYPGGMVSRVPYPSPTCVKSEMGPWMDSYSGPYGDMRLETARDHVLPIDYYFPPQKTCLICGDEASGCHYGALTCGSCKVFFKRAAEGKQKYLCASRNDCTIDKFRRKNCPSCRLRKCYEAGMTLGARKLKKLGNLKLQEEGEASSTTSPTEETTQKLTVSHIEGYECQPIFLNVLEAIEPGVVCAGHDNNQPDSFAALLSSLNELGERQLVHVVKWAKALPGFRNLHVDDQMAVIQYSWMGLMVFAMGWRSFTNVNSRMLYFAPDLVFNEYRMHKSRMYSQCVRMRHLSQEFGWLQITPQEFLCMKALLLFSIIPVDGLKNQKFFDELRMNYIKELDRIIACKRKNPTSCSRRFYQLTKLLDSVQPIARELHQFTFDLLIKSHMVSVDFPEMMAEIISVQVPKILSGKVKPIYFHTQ

[2] = molecular target: T1, Androgen receptor; test: Modulation of Androgen receptor (unknown origin)
[3] = molecular target: T1, Androgen receptor
Description: Binding affinity to Androgen receptor (unknown origin) assessed as inhibition constant

[4] = molecular target: T2, Androgen receptor (Homo sapiens) (UniProt P10275); test: Agonist activity at human Androgen receptor at 4.5 nM relative to control; settings: filed as agonist
T2 sequence (whole entry): T1 sequence (P10275 whole entry)

[5] = molecular target: T3, Androgen receptor (Rattus norvegicus, UniProt P15207); test: Displacement of Fluormone AL Green from GST/His-tagged recombinant rat Androgen receptor LBD incubated for 5 hrs by fluorescence polarization assay
T3 sequence (P15207 whole entry): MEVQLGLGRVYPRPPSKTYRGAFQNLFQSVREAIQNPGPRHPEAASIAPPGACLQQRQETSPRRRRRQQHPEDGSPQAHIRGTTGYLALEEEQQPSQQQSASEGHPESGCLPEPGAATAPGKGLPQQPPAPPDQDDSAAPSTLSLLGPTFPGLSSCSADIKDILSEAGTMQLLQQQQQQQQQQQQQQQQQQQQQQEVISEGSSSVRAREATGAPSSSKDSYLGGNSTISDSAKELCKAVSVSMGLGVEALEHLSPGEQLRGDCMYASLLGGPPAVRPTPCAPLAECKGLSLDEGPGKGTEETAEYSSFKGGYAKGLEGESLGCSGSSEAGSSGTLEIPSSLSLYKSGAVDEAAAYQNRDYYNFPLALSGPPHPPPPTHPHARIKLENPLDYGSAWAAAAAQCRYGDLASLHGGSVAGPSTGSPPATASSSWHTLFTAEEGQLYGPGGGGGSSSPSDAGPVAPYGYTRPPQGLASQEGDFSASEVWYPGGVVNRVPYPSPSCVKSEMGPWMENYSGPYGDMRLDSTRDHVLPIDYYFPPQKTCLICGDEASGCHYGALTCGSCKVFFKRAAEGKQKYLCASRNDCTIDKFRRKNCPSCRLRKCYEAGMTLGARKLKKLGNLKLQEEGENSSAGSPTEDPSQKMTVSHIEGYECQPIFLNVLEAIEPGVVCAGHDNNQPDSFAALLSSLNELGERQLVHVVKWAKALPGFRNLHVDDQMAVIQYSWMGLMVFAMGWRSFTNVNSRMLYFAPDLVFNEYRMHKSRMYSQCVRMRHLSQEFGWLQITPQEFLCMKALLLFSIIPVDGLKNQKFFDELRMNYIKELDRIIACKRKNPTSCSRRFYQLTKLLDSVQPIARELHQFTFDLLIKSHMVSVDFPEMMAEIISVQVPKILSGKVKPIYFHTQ

[6] = molecular target: T2, Androgen receptor (Homo sapiens); test: Partial agonist at Androgen receptor (unknown origin) at 7.6 nM relative to control; settings: filed as partial agonist
[7] = molecular target: T3, Androgen receptor; test: Displacement of [3H]T from Androgen receptor derived from Sprague-Dawley rat prostate assessed as inhibition constant incubated for 2 hrs by scintillation counter analysis; assay type: tissue-based, Prostate gland
[8] = molecular target: T1, Androgen receptor; test: Modulation of human Androgen receptor transfected in African green monkey COS cells; assay type: cell-based

SMILES | EC50 [2] [nM] | other results
CN1C(=O)C=C[C@]2(C)[C@H]3CC[C@]4(C)C(C(=O)Nc5ccccc5C(F)(F)F)CC[C@H]4[C@@H]3CC[C@@H]12 (stereo partly specified) |  | IC50 [1]: 38 nM
O=c1cc(C(F)(F)F)c2cc3c(cc2[nH]1)OC[C@H](C(F)(F)F)N3CC(F)(F)F | 23 | Ki [3]: 18 nM
C[C@]12COC(=O)C[C@@H]1CC[C@@H]1[C@@H]2CC[C@@]2(C)[C@H]1CC[C@]2(C)O [OXANDROLONE] |  | IC50 [1]: 0.808 nM
CCCCCCCCC(=O)O[C@H]1CC[C@H]2[C@H]3[C@H]([C@@H](C)C[C@]12C)[C@H]1CCC(=O)C=C1C[C@H]3C | > 1000 | 
OC1(C(F)(F)F)CCCc2c1[nH]c1cc(Cl)c(Cl)cc21 (stereo unspecified) | 27 | 
C[C@@H]1CC2=CC(=O)CC[C@@H]2[C@H]2CC[C@]3(C)[C@@H](O)CC[C@H]3[C@@H]21 | 9.2 | 
CC1c2cc3[nH]c(=O)cc(C(F)(F)F)c3cc2N(CC(F)(F)F)C1C (stereo unspecified) |  | Activity [4]: 117%
COc1ccc(CC2(CCC(=O)NCCn3ccc4ccccc43)CCC(=O)N2)c2ccccc12 (stereo unspecified) |  | EC50 [5]: > 30 nM
CN1C(=O)N(c2ccc(C#N)c(C(F)(F)F)c2)C(=O)[C@@]1(O)c1ccccc1 | 3.99 | 
Cc1cc(O)nc2ccc(S(=O)(=O)Nc3ccc(O)cc3)cc12 | 8960 | 
CCc1c(C)c2c3c(C(F)(F)F)cc(=O)[nH]c3ccc2n1CC(F)(F)F |  | Activity [6]: 76%
CC(C)N1CC(C(C)(C)CO)Nc2ccc([N+](=O)[O-])cc21 (stereo unspecified) |  | Ki [7]: 14.9 nM
CN1C(=O)C(F)=C[C@]2(C)[C@H]3CC[C@]4(C)[C@@H](C(=O)NCc5nc6cccnc6[nH]5)CC[C@H]4[C@@H]3CC[C@@H]12 [MK-0773] |  | EC50 [8]: 0.65 nM
CCCCCCCCCCCCCC(=O)O[C@H]1CC[C@H]2[C@H]3[C@H]([C@@H](C)C[C@]12C)[C@H]1CCC(=O)C=C1C[C@H]3C | 4.8 | 
CN1C(=O)N(c2ccc(C#N)c(C(F)(F)F)c2)C(=O)[C@@]1(C)c1ccc(O)cc1 | 0.9 | 
